Laboratory results: US6805870B1 (priority 1994, dated 2004)
Read-outs that look alike come from different tables or passages of the source.

Test system: VSV
Assay type: in vivo, mouse

For c1ccc([C@H]2CN3CCSC3=N2)cc1 [levamisole], the “efficacy index (mean of at least 2 tests)” value (shortened to “efficacy index”) (mouse, in vivo) was 0, the “efficacy index” value (preparation dilution 1:4) was “toxic” and the “efficacy index” value (preparation dilution 1:8) was 0. For the same molecule, the “efficacy index” value (preparation dilution 1:32) was 0, the “efficacy index” value (preparation dilution 1:64) was 0 and the “efficacy index” value (preparation dilution 1:128) was 0.
